The values that follow are results of earlier work, collected in patent US20160286794A1, “PLANT DISEASE CONTROL AGENT AND PLANT DISEASE CONTROL METHOD” (UBE MATERIALS INDUSTRIES, LTD., priority 2013, published 2016).

For the data set the following is noted: Hydrophile-Lipophile Balance of the nonionic surfactant.
On to “nonylphenyl polyethylene glycol [Nodinet P-40]”, for which the HLB is given as 13.0.

As for “octylphenol polyethylene glycol ether [Triton X-100]”, the HLB is reported as 13.5.

Take “polyethylene glycol sorbitan monolaurate [Tween 20]”: the HLB is 16.7.

With “polyethylene glycol sorbitan monooleate [Tween 80]”, the HLB was 15.0.

For the substance “polyoxyethylene branched nonyl cyclohexyl ether [Triton N-101]”, the HLB is 13.5.
